Source: PubChem BioAssay (NCI)
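Values below derive from 48-hour exposures of cells grown in 96-well plates, with endpoints linearly interpolated between the two concentrations bracketing the appropriate inhibition level. Definition used: TGI = concentration required for complete inhibition of growth.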

Assays:
Experiment in all cases: NCI-60 cell line screen, 48 h
[1] = tested on: HCC-2998 colon
[2] = tested on: COLO 205 colon
[3] = tested on: SNB-75 CNS
[4] = tested on: M14 melanoma
[5] = tested on: HS 578T breast
[6] = tested on: HL-60(TB) leukemia
[7] = tested on: NCI-H226 lung
[8] = tested on: EKVX NSCLC
[9] = tested on: NCI-H460 lung
[10] = tested on: SK-MEL-2 melanoma
[11] = tested on: MDA-N
[12] = tested on: ACHN renal
[13] = tested on: DU-145 prostate
[14] = tested on: SK-MEL-28 melanoma
[15] = tested on: T-47D breast
[16] = tested on: MOLT-4 leukemia
[17] = tested on: HOP-62 NSCLC
[18] = tested on: OVCAR-8 ovarian
[19] = tested on: MALME-3M melanoma
[20] = tested on: SK-MEL-5 melanoma

Cc1cn(CCCCOC(=O)NC(CCCN=C(N)N)C(=O)O)c(=O)[nH]c1=O (centres undefined)
TGI [1]: > 100 µM | TGI [2]: > 100 µM | TGI [3]: > 100 µM | TGI [4]: > 100 µM | TGI [5]: > 100 µM | TGI [6]: > 100 µM | TGI [7]: > 100 µM | TGI [8]: > 100 µM | TGI [9]: > 100 µM | TGI [10]: > 100 µM | TGI [11]: > 100 µM | TGI [12]: > 100 µM | TGI [13]: > 100 µM | TGI [14]: > 100 µM | TGI [15]: > 100 µM | TGI [16]: > 100 µM | TGI [17]: > 100 µM | TGI [18]: > 100 µM

C1=C2C3=[N+](CCCC3)CC2Cc2sccc21 (centres undefined)
TGI [2]: > 100 µM | TGI [3]: > 100 µM | TGI [4]: > 100 µM | TGI [5]: > 100 µM | TGI [6]: > 100 µM | TGI [19]: > 100 µM | TGI [7]: > 100 µM | TGI [8]: > 100 µM | TGI [9]: > 100 µM | TGI [10]: > 100 µM | TGI [11]: > 100 µM | TGI [12]: > 100 µM | TGI [13]: > 100 µM | TGI [14]: > 100 µM | TGI [15]: > 100 µM | TGI [16]: > 100 µM | TGI [20]: > 100 µM | TGI [17]: > 100 µM | TGI [18]: > 100 µM

Cc1c(C)c(S(=O)(=O)N(CCCN)OCCCN)c(C)c2c1OC(C)(C)CC2
TGI [1]: 21.2 µM | TGI [2]: 32.1 µM | TGI [3]: 23.4 µM | TGI [4]: 27.7 µM | TGI [5]: 29.6 µM | TGI [19]: 27.8 µM | TGI [7]: 28 µM | TGI [8]: 30.4 µM | TGI [9]: 30.3 µM | TGI [10]: 32.1 µM | TGI [11]: 29.2 µM | TGI [12]: 29.6 µM | TGI [13]: 29.5 µM | TGI [14]: 28.5 µM | TGI [15]: 33.5 µM | TGI [16]: 14.9 µM | TGI [20]: 29 µM | TGI [17]: 27.2 µM | TGI [18]: 29.8 µM

CCCCCCCCCCCCCC(=O)OCC(CCS(=O)(=O)O[C@H]1CC[C@@]2(C)C(=CC[C@@H]3C2CC[C@]2(C)C(=O)CCC32)C1)OC(=O)CCCCCCCCCCCCC (some centres undefined)
TGI [1]: > 100 µM | TGI [2]: > 100 µM | TGI [3]: > 100 µM | TGI [4]: > 100 µM | TGI [5]: > 100 µM | TGI [6]: > 100 µM | TGI [19]: > 100 µM | TGI [8]: > 100 µM | TGI [9]: > 100 µM | TGI [10]: > 100 µM | TGI [11]: > 100 µM | TGI [12]: > 100 µM | TGI [13]: > 100 µM | TGI [14]: > 100 µM | TGI [15]: > 100 µM | TGI [20]: > 100 µM | TGI [17]: > 100 µM

CCCC(=O)Nc1cc(/C=C/C(=O)N2CC(CCl)c3ccc([N+](=O)[O-])cc32)n(C)c1 (centres undefined)
TGI [1]: > 100 µM | TGI [2]: > 100 µM | TGI [3]: > 100 µM | TGI [4]: > 100 µM | TGI [5]: > 100 µM | TGI [19]: > 100 µM | TGI [7]: > 100 µM | TGI [8]: > 100 µM | TGI [10]: > 100 µM | TGI [11]: > 100 µM | TGI [12]: > 100 µM | TGI [13]: > 100 µM | TGI [14]: > 100 µM | TGI [15]: > 100 µM | TGI [18]: > 100 µM

CC1(C)CC[C@]2(C)[C@@H](O)C[C@]3(C)C(=CC[C@@H]4[C@@]5(C)CC[C@H](O)C(C)(C)[C@@H]5CC[C@]43C)[C@@H]2C1
TGI [2]: > 100 µM | TGI [4]: > 100 µM | TGI [5]: 99.3 µM | TGI [6]: > 100 µM | TGI [19]: 86.9 µM | TGI [7]: > 100 µM | TGI [8]: > 100 µM | TGI [9]: > 100 µM | TGI [10]: 80.7 µM | TGI [11]: > 100 µM | TGI [12]: > 100 µM | TGI [13]: > 100 µM | TGI [14]: > 100 µM | TGI [15]: 67.7 µM | TGI [16]: > 100 µM | TGI [20]: > 100 µM | TGI [17]: > 100 µM | TGI [18]: 74.3 µM

Nc1nncc2n[nH]nc12
TGI [2]: > 100 µM | TGI [3]: > 100 µM | TGI [4]: > 100 µM | TGI [5]: > 100 µM | TGI [6]: > 100 µM | TGI [7]: > 100 µM | TGI [8]: > 100 µM | TGI [9]: > 100 µM | TGI [10]: > 100 µM | TGI [11]: > 100 µM | TGI [12]: > 100 µM | TGI [13]: > 100 µM | TGI [14]: > 100 µM | TGI [15]: > 100 µM | TGI [16]: 91 µM | TGI [20]: 30.7 µM | TGI [17]: > 100 µM | TGI [18]: > 100 µM

COc1cc(/C=C2\N=C(c3ccccc3)N(c3nc4ccccc4s3)C2=O)cc(OC)c1OC
TGI [1]: > 100 µM | TGI [3]: 61 µM | TGI [4]: > 100 µM | TGI [5]: > 100 µM | TGI [6]: > 100 µM | TGI [7]: > 100 µM | TGI [8]: > 100 µM | TGI [9]: > 100 µM | TGI [10]: > 100 µM | TGI [11]: 54.4 µM | TGI [12]: 84.5 µM | TGI [13]: > 100 µM | TGI [14]: > 100 µM | TGI [15]: > 100 µM | TGI [16]: 46.6 µM | TGI [20]: > 100 µM | TGI [17]: > 100 µM | TGI [18]: > 100 µM

O=C(CSc1nc2ccc(I)cc2c(=O)n1Cc1ccccc1)NNC(=S)Nc1ccccc1
TGI [1]: > 100 µM | TGI [2]: > 100 µM | TGI [3]: > 100 µM | TGI [4]: > 100 µM | TGI [5]: > 100 µM | TGI [6]: > 100 µM | TGI [7]: > 100 µM | TGI [8]: 6.14 µM | TGI [9]: > 100 µM | TGI [10]: > 100 µM | TGI [11]: > 100 µM | TGI [12]: > 100 µM | TGI [13]: > 100 µM | TGI [14]: > 100 µM | TGI [15]: > 100 µM | TGI [16]: > 100 µM | TGI [20]: > 100 µM

Cc1ccc(C(=O)C2C=C(c3ccc(C)cc3)SC3C=CCC32)cc1 (centres undefined)
TGI [2]: 38 µM | TGI [4]: 36.4 µM | TGI [5]: 73.8 µM | TGI [6]: > 100 µM | TGI [19]: 34.1 µM | TGI [7]: 66.1 µM | TGI [8]: 97.6 µM | TGI [9]: 37.3 µM | TGI [10]: 36.8 µM | TGI [11]: 32.3 µM | TGI [12]: 47.7 µM | TGI [13]: > 100 µM | TGI [14]: 33.9 µM | TGI [15]: 50.6 µM | TGI [16]: 44.9 µM | TGI [20]: 29.2 µM | TGI [17]: 45.2 µM | TGI [18]: 32.3 µM

O=C(O)CN1CCN2CCCCCCCCN(CC1)CCN(CC(=O)O)CC2
TGI [2]: > 100 µM | TGI [3]: > 100 µM | TGI [4]: > 100 µM | TGI [5]: > 100 µM | TGI [6]: 30.7 µM | TGI [19]: > 100 µM | TGI [7]: > 100 µM | TGI [8]: > 100 µM | TGI [9]: > 100 µM | TGI [10]: > 100 µM | TGI [11]: > 100 µM | TGI [12]: > 100 µM | TGI [13]: > 100 µM | TGI [14]: > 100 µM | TGI [15]: > 100 µM | TGI [16]: > 100 µM | TGI [20]: > 100 µM | TGI [17]: > 100 µM | TGI [18]: > 100 µM

CC(=O)OCCCCn1nncc1Cn1ccc(=O)n(Cc2cnnn2CCCCOC(C)=O)c1=O
TGI [1]: > 100 µM | TGI [2]: > 100 µM | TGI [3]: > 100 µM | TGI [4]: > 100 µM | TGI [5]: > 100 µM | TGI [19]: > 100 µM | TGI [7]: > 100 µM | TGI [8]: > 100 µM | TGI [10]: > 100 µM | TGI [11]: > 100 µM | TGI [12]: > 100 µM | TGI [13]: > 100 µM | TGI [14]: > 100 µM | TGI [15]: > 100 µM | TGI [16]: > 100 µM | TGI [20]: > 100 µM | TGI [17]: > 100 µM | TGI [18]: > 100 µM
